Measurements from patent US11123340B2, “Small-molecule UT-A-selective urea transport inhibitors” (The Regents of the University of California, priority 2014, dated 2021).

Columns and labels:
PIM-1 kinase = PIM-1 kinase (Homo sapiens, UniProt P11309); settings: Ren et al. (2011); cited from earlier work
rats = assay: Diuretic studies in rats; format: in vivo, rat; settings: for urine osmolality / urine volume: control, hydrated rats
Method: Compound effects on urine output, osmolality and urea concentration were investigated in two conditions. Rats were placed in metabolic cages with water and food available ad libitum and spontaneously voided urine was collected for 3 h. Rats were then injected intravenously with 20 mg/kg UTAinh-E02 or UTAinh-F11 in formulations listed above (or vehicle alone), and returned to the metabolic cages without access to water, but free access to food. Spontaneously voided urine was collected every 3 h for a 6-h period. In some experiments, rats were administered dDAVP (4 μg/kg, IP) just before compound (or vehicle) injection and 3 h later. […] Urine osmolality was measured in water-diluted urine samples by freezing-point osmometry (Micro-osmometer; Precision Systems, Natick, Mass.). Urea concentration was determined by a colorimetric enzymatic assay as described above.
Diuretic efficacy was tested in rats under two different conditions. Inhibitor effects on maximum urinary concentrating ability was studied in rats administered the V2-selective agonist dDAVP at 4 μg/kg every 3 hours. Inhibitors were administered intravenously at 20 mg/kg as done in the pharmacokinetics experiments above. […] Each inhibitor produced a marked increase in volume and reduction in osmolality in urine collected over 0-3 h.
In a separate set of studies UTAinh-E02 was tested in control, hydrated rats.

[1] = Inhibitor permeability across MDCK cell monolayers (LC/MS); format: in vitro ADME, canine; settings: dog; MDCK monolayers on porous filters, 20 μM; read-out: transepithelial permeability coefficient
Method: UT-A1 expressing MDCK cells were grown on 12-mm diameter collagen-coated Transwell inserts (0.4 μm pore size; Costar, Costar, N.Y.) to form tight monolayers (resistance>500 Ωcm^2), as described (see, e.g., Levin et al. (2007) FASEB J. 21, 551-563). Urea flux in the basolateral-to-apical direction was measured in response to a 15 mM urea gradient in which PBS containing forskolin (10 μM), with or without UT-A1 inhibitor and 0.7 mM phloretin, was added to both the apical-facing (0.2 mL) and basal-facing (2 mL) surfaces. After 30 min the basal-facing solution was replaced by PBS containing test compound+15 mM urea. Apical fluid samples (5 μL) were collected at specified times for enzymatic assay of urea (QUANTICHROME Urea Assay Kit; BioAssay Systems, Hayward, Calif.). To measure inhibitor permeability across MDCK cell layers, compounds (20 μM) were added on the basal-facing surface and fluid samples (20 μL) from the apical-facing surface were collected at different time points and analyzed by LC/MS.
To further evaluate the potential site of inhibitor action, the kinetics of UT-A1 inhibition was measured by assay of UT-A1 inhibition at different times after compound addition. […] To assess inhibitor membrane permeability transport of UTAinh-E02 and UTAinh-F11 across MDCK monolayers grown on porous filters by LC/MS was measured. Transport of UTAinh-F11 was much faster than that of UTAinh-E02 (FIG. 3C, right lower panel), with computed transepithelial permeability coefficients of […] and 1.1×10^−5 cm/s, respectively. From surface-to-volume considerations, the equilibration times were computed of UTAinh-E02 and UTAinh-F11 to be 250 and 14 s, respectively, in MDCK cells, which are consistent with intracellular sites of action of both inhibitors.

Chain of PIM-1 kinase (P11309 whole entry): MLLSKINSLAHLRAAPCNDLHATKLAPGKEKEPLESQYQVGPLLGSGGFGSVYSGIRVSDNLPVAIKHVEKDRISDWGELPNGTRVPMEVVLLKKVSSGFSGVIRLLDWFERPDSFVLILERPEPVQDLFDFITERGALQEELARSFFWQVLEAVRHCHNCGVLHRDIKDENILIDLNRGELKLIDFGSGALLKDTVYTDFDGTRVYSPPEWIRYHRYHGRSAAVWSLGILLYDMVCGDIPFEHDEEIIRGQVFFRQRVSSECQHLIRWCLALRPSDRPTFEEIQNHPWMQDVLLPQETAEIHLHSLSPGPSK

In the case of `CC(=O)Nc1ccc(-c2csc(-c3c[nH]c4ccccc34)n2)cc1` [UTA1inh-E02, N-(4-(2-(1H-indol-3-yl)thiazol-4-yl)phenyl)acetamide], the “PIM-1 kinase inhibitor potency” value (PIM-1 kinase) is listed as “micromolar potency”, the urine osmolality (rats; 0-3 h) is listed as “reduced” and the urine volume (rats; 0-3 h) is listed as “significantly increased”. For the same molecule, the urine osmolality (rats; 3-6 h collection) was “returned to near baseline”, the urine volume (rats; 3-6 h collection) was “returned to near baseline” and the “ratio of urea vs. non-urea solutes in urine” value (rats; dDAVP rats, after inhibitor treatment) was “increased”.
`COc1ccc(C)cc1S(=O)(=O)Nc1ccc(Cl)c(N2CCCS2(=O)=O)c1` [UTA1inh-F11, N-[4-Chloro-3-(1,1-dioxido-1,2-thiazolidin-2-yl)phenyl]-2-methoxy-5-methylbenzene-sulfonamide] gave a Papp B→A at 20 μM [1] of 11 ×10⁻⁶ cm/s.
